Measured values from patent US10105357B2, “Indication of antibiotic drugs for preparation of cancer inhibition pharmaceutical composition” (LAUNX BIOMEDICAL CO., LTD., priority 2014, dated 2018).
Read-outs that look alike come from different tables or passages of the source.

What was measured:
[1] = tested on: HI650 (Lung Adenocarcinoma); experiment: Cell viability analysis, lung cancer HI650; type: cell-based, human; conditions: for viability at 10 µM: Homo sapiens, NCI-H1650, 72 h, repeated experiment
[2] = tested on: A549 (Lung Adenocarcinoma); experiment: Cell viability analysis, lung cancer A549; type: cell-based, human; conditions: for viability at 10 µM: Homo sapiens, A549, 72 h, repeated experiment
[3] = tested on: AGS (Gastric Adenocarcinoma); experiment: Cell viability analysis, gastric cancer AGS; type: cell-based, human; conditions: for viability at 10 µM: Homo sapiens, 72 h, repeated experiment, read-out: The results of antibiotic drug inhibiting cancer cell lines (cell viability analysis), AGS
[4] = tested on: MKN-45 (Gastric Adenocarcinoma); experiment: Cell viability analysis, gastric cancer MKN-45; type: cell-based, human; conditions: for viability at 10 µM: Homo sapiens, MKN-45, 72 h, repeated experiment
[5] = tested on: HepG2 (Hepatocellular Carcinoma); experiment: Cell viability analysis, hepatic cancer HepG2; type: cell-based, human; conditions: for viability at 10 µM: Homo sapiens, HepG2, 72 h, repeated experiment
[6] = tested on: Hep3B (hepatocellular carcinoma); experiment: Cell viability analysis, hepatic cancer Hep3B; type: cell-based, human; conditions: for viability at 10 µM: Homo sapiens, 72 h, Hep3B, read-out: The results of antibiotic drug inhibiting cancer cell lines (cell viability analysis), Hep3B
[7] = tested on: LoVo (Colorectal Adenocarcinoma); experiment: Cell viability analysis, colon cancer LoVo; type: cell-based, human; conditions: for viability at 10 µM: Homo sapiens, LoVo, 72 h, read-out: The results of antibiotic drug inhibiting cancer cell lines (cell viability analysis), LoVo, repeated experiment
[8] = tested on: A375 (Amelanotic Melanoma); experiment: Cell viability analysis, skin cancer A375; type: cell-based, human; conditions: for viability at 10 µM: Homo sapiens, A-375, 72 h, repeated experiment
[9] = tested on: BCC (basal cell carcinoma); experiment: Cell viability analysis, skin cancer BCC; type: cell-based, human; conditions: for viability at 10 µM: Homo sapiens, 72 h, read-out: The results of antibiotic drug inhibiting cancer cell lines (cell viability analysis), BCC
[10] = tested on: HeLa (Cervix Adenocarcinoma); experiment: Cell viability analysis, cervical cancer HeLa; type: cell-based, human
[11] = tested on: C-33A (Cervical carcinoma); experiment: Cell viability analysis, cervical cancer C-33A; type: cell-based, human; conditions: for viability at 10 µM: Homo sapiens, 72 h, read-out: The results of antibiotic drug inhibiting cancer cell lines (cell viability analysis), C-33A
[12] = tested on: PC3 (p53−) (Prostate Adenocarcinoma); experiment: Cell viability analysis, prostate cancer PC3; type: cell-based, human; conditions: for viability at 10 µM: Homo sapiens, 72 h, repeated experiment
[13] = tested on: TSGH-8301 (Urinary Bladder Carcinoma); experiment: Cell viability analysis, bladder cancer TSGH-8301; type: cell-based, human; conditions: for viability at 10 µM: Homo sapiens, 72 h, repeated experiment
T24 = experiment: Cell viability analysis, bladder cancer T24; type: cell-based, human; conditions: for viability at 10 µM: Homo sapiens, T-24, 72 h, read-out: The results of antibiotic drug inhibiting cancer cell lines (cell viability analysis), T24
[14] = tested on: MCF7 (Mammary Gland, Adenocarcinoma); experiment: Cell viability analysis, breast cancer MCF7; type: cell-based, human; conditions: for viability at 10 µM: Homo sapiens, MCF7, 72 h, repeated experiment
[15] = tested on: MDA-MB-231 (Mammary Gland, Adenocarcinoma); experiment: Cell viability analysis, breast cancer MDA-MB-231; type: cell-based, human; conditions: for viability at 10 µM: Homo sapiens, MDA-MB-231, 72 h, read-out: The results of antibiotic drug inhibiting cancer cell lines (cell viability analysis), MDA-MB231
BxPC-3 = experiment: Cell viability analysis, pancreatic cancer BxPC-3; type: cell-based, human; conditions: for viability at 10 µM: Homo sapiens, read-out: The results of antibiotic drug inhibiting cancer cell lines (cell viability analysis), BxPC-3
AsPC-1 = experiment: Cell viability analysis, pancreatic cancer AsPC-1; type: cell-based, human; conditions: for viability at 10 µM: Homo sapiens, ASPC1, 72 h, read-out: The results of antibiotic drug inhibiting cancer cell lines (cell viability analysis), AsPC-1
NIH: OVCAR-3 = experiment: Cell viability analysis, ovarian cancer NIH: OVCAR-3; type: cell-based, human; conditions: for viability at 10 µM: Homo sapiens, read-out: The results of antibiotic drug inhibiting cancer cell lines (cell viability analysis), NIH-OVCAR-3
TOV-21G = experiment: Cell viability analysis, ovarian cancer TOV-21G; type: cell-based, human; conditions: for viability at 10 µM: Homo sapiens, TOV21G, 72 h, read-out: The results of antibiotic drug inhibiting cancer cell lines (cell viability analysis), TOV-21G
[16] = tested on: SAS (Tongue squamous cell carcinoma); experiment: Cell viability analysis, tongue cancer SAS; type: cell-based, human; conditions: for viability at 10 µM: Homo sapiens, 72 h, read-out: The results of antibiotic drug inhibiting cancer cell lines (cell viability analysis), SAS
U-2OS = experiment: Cell viability analysis, osteosarcoma U-2OS; type: cell-based, human; conditions: for viability at 10 µM: Homo sapiens, 72 h, U2OS, read-out: The results of antibiotic drug inhibiting cancer cell lines (cell viability analysis), U2OS
[17] = tested on: 786-O (Renal adenocarcinoma); experiment: Cell viability analysis, renal cancer 786-O; type: cell-based, human; conditions: for viability at 10 µM: Homo sapiens, 786-0, 72 h, read-out: The results of antibiotic drug inhibiting cancer cell lines (cell viability analysis), 786-O
[18] = tested on: HCT116 (p53+) (Colorectal Carcinoma)

COC(=O)Nc1nc2ccc([S+]([O-])c3ccccc3)cc2[nH]1 (stereo not drawn) [Oxfendazole]
viability at 10 µM ([1]; H1650, read-out: The results of antibiotic drug inhibiting cancer cell lines (cell viability analysis), H1650): 64%
viability at 10 µM ([2]; A549, read-out: The results of antibiotic drug inhibiting cancer cell lines (cell viability analysis), A549): 64.7%
viability at 10 µM ([3]; AGS): 51.4%
viability at 10 µM ([4]; MKN-45, read-out: The results of antibiotic drug inhibiting cancer cell lines (cell viability analysis), MKN-45): 79.9%
viability at 10 µM ([5]; HepG2, read-out: The results of antibiotic drug inhibiting cancer cell lines (cell viability analysis), HepG2): 99.4%
viability at 10 µM ([6]; repeated experiment): 107%
viability at 10 µM [7]: 73.7%
viability at 10 µM ([8]; A375, read-out: The results of antibiotic drug inhibiting cancer cell lines (cell viability analysis), A375): 59.7%
viability at 10 µM ([9]; BCC, repeated experiment): 55.3%
viability at 10 µM ([10]; Homo sapiens, HeLa, 72 h, HeLa; repeated experiment; read-out: The results of antibiotic drug inhibiting cancer cell lines (cell viability analysis), HeLa): 37%
viability at 10 µM ([11]; C-33A, repeated experiment): 86.4%
viability at 10 µM ([12]; PC-3, read-out: The results of antibiotic drug inhibiting cancer cell lines (cell viability analysis), PC-3): 72.7%
viability at 10 µM ([13]; TSGH-8301, read-out: The results of antibiotic drug inhibiting cancer cell lines (cell viability analysis), TSGH-8301): 67.6%
viability at 10 µM (T24; T24, repeated experiment): 70.2%
viability at 10 µM ([14]; MCF-7, read-out: The results of antibiotic drug inhibiting cancer cell lines (cell viability analysis), MCF-7): 64.6%
viability at 10 µM ([15]; MDA-MB231, repeated experiment): 73.9%
viability at 10 µM (BxPC-3; 72 h, BxPC-3, repeated experiment): 55%
viability at 10 µM (AsPC-1; AsPC-1, repeated experiment): 50.9%
viability at 10 µM (NIH: OVCAR-3; 72 h, NIH-OVCAR-3, repeated experiment): 62.2%
viability at 10 µM (TOV-21G; TOV-21G, repeated experiment): 65.1%
viability at 10 µM ([16]; SAS, repeated experiment): 72.3%
viability at 10 µM (U-2OS; repeated experiment): 83.4%
viability at 10 µM ([17]; 786-O, repeated experiment): 72.3%
viability [18]: 67.4%

CCCOc1ccc2nc(NC(=O)OC)[nH]c2c1 [Oxibendazole]
viability at 10 µM ([1]; read-out: The results of antibiotic drug inhibiting cancer cell lines (cell viability analysis), H1650, H1650): 41.3%
viability at 10 µM ([2]; read-out: The results of antibiotic drug inhibiting cancer cell lines (cell viability analysis), A549, A549): 24%
viability at 10 µM [3]: 37.6%
viability at 10 µM ([4]; read-out: The results of antibiotic drug inhibiting cancer cell lines (cell viability analysis), MKN-45, MKN-45): 65.6%
viability at 10 µM ([5]; read-out: The results of antibiotic drug inhibiting cancer cell lines (cell viability analysis), HepG2, HepG2): 64.5%
viability at 10 µM [6]: 59.8%
viability at 10 µM [7]: 53.4%
viability at 10 µM ([8]; read-out: The results of antibiotic drug inhibiting cancer cell lines (cell viability analysis), A375, A375): 31.8%
viability at 10 µM [9]: 34.3%
viability at 10 µM ([10]; Homo sapiens, HeLa, 72 h, read-out: The results of antibiotic drug inhibiting cancer cell lines (cell viability analysis), HeLa; repeated experiment): 29.3%
viability at 10 µM ([11]; C-33-A): 47.8%
viability at 10 µM ([12]; read-out: The results of antibiotic drug inhibiting cancer cell lines (cell viability analysis), PC-3, PC-3): 38.9%
viability at 10 µM ([13]; read-out: The results of antibiotic drug inhibiting cancer cell lines (cell viability analysis), TSGH-8301, TSGH-8301): 48.6%
viability at 10 µM (T24): 38.1%
viability at 10 µM ([14]; read-out: The results of antibiotic drug inhibiting cancer cell lines (cell viability analysis), MCF-7, MCF-7): 60.9%
viability at 10 µM [15]: 48.9%
viability at 10 µM (BxPC-3; BXPC-3, 72 h): 29.1%
viability at 10 µM (AsPC-1): 33%
viability at 10 µM (NIH: OVCAR-3; OVCAR-3, 72 h): 54.8%
viability at 10 µM (TOV-21G): 26.6%
viability at 10 µM [16]: 41.2%
viability at 10 µM (U-2OS): 46.6%
viability at 10 µM [17]: 18.5%
viability [18]: 22.1%

CS(=O)(=O)c1ccc([C@@H](O)[C@@H](CO)NC(=O)C(Cl)Cl)cc1 [Thiamphenicol (Thiophenicol)]
The results of antibiotic drug inhibiting cancer cell lines (cell viability analysis), H1650 [1]: 94.92
The results of antibiotic drug inhibiting cancer cell lines (cell viability analysis), A549 [2]: 97.41
The results of antibiotic drug inhibiting cancer cell lines (cell viability analysis), AGS [3]: 140.3
The results of antibiotic drug inhibiting cancer cell lines (cell viability analysis), MKN-45 [4]: 177
The results of antibiotic drug inhibiting cancer cell lines (cell viability analysis), HepG2 [5]: 143.9
The results of antibiotic drug inhibiting cancer cell lines (cell viability analysis), Hep3B [6]: 103.3
The results of antibiotic drug inhibiting cancer cell lines (cell viability analysis), LoVo [7]: 96.08
The results of antibiotic drug inhibiting cancer cell lines (cell viability analysis), A375 [8]: 112
The results of antibiotic drug inhibiting cancer cell lines (cell viability analysis), BCC [9]: 111.8
The results of antibiotic drug inhibiting cancer cell lines (cell viability analysis), HeLa [10]: 90.82
The results of antibiotic drug inhibiting cancer cell lines (cell viability analysis), C-33A [11]: 140.2
The results of antibiotic drug inhibiting cancer cell lines (cell viability analysis), PC-3 [12]: 150.2
The results of antibiotic drug inhibiting cancer cell lines (cell viability analysis), TSGH-8301 [13]: 136.8
The results of antibiotic drug inhibiting cancer cell lines (cell viability analysis), T24 (T24): 164
The results of antibiotic drug inhibiting cancer cell lines (cell viability analysis), MCF-7 [14]: 89.24
The results of antibiotic drug inhibiting cancer cell lines (cell viability analysis), MDA-MB231 [15]: 95.4
The results of antibiotic drug inhibiting cancer cell lines (cell viability analysis), BxPC-3 (BxPC-3): 86.08
The results of antibiotic drug inhibiting cancer cell lines (cell viability analysis), AsPC-1 (AsPC-1): 102.5
The results of antibiotic drug inhibiting cancer cell lines (cell viability analysis), NIH-OVCAR-3 (NIH: OVCAR-3): 115.7
The results of antibiotic drug inhibiting cancer cell lines (cell viability analysis), TOV-21G (TOV-21G): 105.7
The results of antibiotic drug inhibiting cancer cell lines (cell viability analysis), SAS [16]: 54.04
The results of antibiotic drug inhibiting cancer cell lines (cell viability analysis), U2OS (U-2OS): 51.12
The results of antibiotic drug inhibiting cancer cell lines (cell viability analysis), 786-O [17]: 93.48
viability [18]: 150%
